Assay results reported in patent US20210045385A1, “PYRIDAZINONE-SUBSTITUTED KETOXIMES AS HERBICIDES” (FMC Corporation, priority 2018, published 2021).

How the values were obtained:
Format in all cases: in vivo
[1] = tested on: Italian ryegrass (Lolium mutiflorum); assay: Test C preemergence, visual plant response rating; settings: Test C, 0 is no effect, 100 is complete control
In short: (§1)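 Visual injury on a 0 (no effect) to 100 (complete control) scale versus untreated controls, scored approximately 10 d after treatment under greenhouse conditions. Treatments used surfactant-containing non-phytotoxic solvent formulations, sprayed onto loam–sand soil preemergence or onto one- to two-leaf plants 2–10 cm tall postemergence.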

[2] = tested on: barnyardgrass (Echinochloa crus-galli); assay: Test C preemergence, visual plant response rating; settings: Test C, 0 is no effect, 100 is complete control
In short: as §1

[3] = tested on: foxtail, giant (giant foxtail, Setaria faberi); assay: Test C preemergence, visual plant response rating; settings: Test C, 0 is no effect, 100 is complete control
In short: as §1

[4] = tested on: kochia (Bassia scoparia); assay: Test C preemergence, visual plant response rating; settings: Test C, 0 is no effect, 100 is complete control
In short: as §1

[5] = tested on: pigweed (Amaranthus retroflexus); assay: Test C preemergence, visual plant response rating; settings: Test C, 0 is no effect, 100 is complete control
In short: as §1

[6] = tested on: ragweed (common ragweed, Ambrosia artemisiifolia); assay: Test C preemergence, visual plant response rating; settings: Test C, 0 is no effect, 100 is complete control
In short: as §1

[7] = tested on: Italian ryegrass (Lolium mutiflorum); assay: Test C postemergence, visual plant response rating
In short: as §1

[8] = tested on: barnyardgrass (Echinochloa crus-galli); assay: Test C postemergence, visual plant response rating
In short: as §1

[9] = tested on: blackgrass (Alopecurus myosuroides); assay: Test C postemergence, visual plant response rating
In short: as §1

[10] = tested on: corn (Zea mays); assay: Test C postemergence, visual plant response rating
In short: as §1

[11] = tested on: foxtail, giant (giant foxtail, Setaria faberi); assay: Test C postemergence, visual plant response rating
In short: as §1

[12] = tested on: galium (catchweed bedstraw, Galium aparine); assay: Test C postemergence, visual plant response rating
In short: as §1

[13] = tested on: kochia (Bassia scoparia); assay: Test C postemergence, visual plant response rating
In short: as §1

[14] = tested on: pigweed (Amaranthus retroflexus); assay: Test C postemergence, visual plant response rating
In short: as §1

[15] = tested on: ragweed (common ragweed, Ambrosia artemisiifolia); assay: Test C postemergence, visual plant response rating
In short: as §1

[16] = tested on: wheat (Triticum aestivum); assay: Test C postemergence, visual plant response rating
In short: as §1

[17] = tested on: barnyardgrass (Echinochloa crus-galli); assay: Test D flooded paddy test, visual plant response rating; settings: 250 g ai/ha, scale 0 to 100 (0 no effect, 100 complete control), 13 to 15 d
In short: (§2)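 Rating is visual, on a 0 (no effect) to 100 (complete control) scale versus controls, taken 13 to 15 d after treatment in a greenhouse. Treatment went into paddy water kept 3 cm above the soil surface, with plants at the 2-leaf stage.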

[18] = tested on: duck salad (Heteranthera limosa); assay: as above; settings: 250 g ai/ha, scale 0 to 100 (0 no effect, 100 complete control), 13 to 15 d
In short: as §2

[19] = tested on: rice (Oryza sativa); assay: as above; settings: 250 g ai/ha, scale 0 to 100 (0 no effect, 100 complete control), 13 to 15 d
In short: as §2

[20] = tested on: sedge umbrella (small-flower umbrella sedge, Cyperus difformis); assay: as above; settings: 250 g ai/ha, scale 0 to 100 (0 no effect, 100 complete control), 13 to 15 d
In short: as §2

[21] = Test C, postemergence, 125 g ai/ha

Compound: C=CCO/N=C(/c1c(O)c(C)nn(C)c1=O)c1cccc2cc(Cl)ccc12 [Compound 246]
- Ryegrass, Italian plant response rating (0 to 100 scale) ([1]; 31 g ai/ha): 30
- Ryegrass, Italian plant response rating (0 to 100 scale) ([1]; 125 g ai/ha): 60
- Barnyardgrass plant response rating (0 to 100 scale) ([2]; 31 g ai/ha): 60
- Barnyardgrass plant response rating (0 to 100 scale) ([2]; 125 g ai/ha): 80
- Foxtail, Giant plant response rating (0 to 100 scale) ([3]; 31 g ai/ha): 80
- Foxtail, Giant plant response rating (0 to 100 scale) ([3]; 125 g ai/ha): 80
- Kochia plant response rating (0 to 100 scale) ([4]; 31 g ai/ha): 0
- Kochia plant response rating (0 to 100 scale) ([4]; 125 g ai/ha): 0
- Pigweed plant response rating (0 to 100 scale) ([5]; 31 g ai/ha): 90
- Pigweed plant response rating (0 to 100 scale) ([5]; 125 g ai/ha): 100
- Ragweed plant response rating (0 to 100 scale) ([6]; 31 g ai/ha): 100
- Ragweed plant response rating (0 to 100 scale) ([6]; 125 g ai/ha): 90
- Ryegrass, Italian plant response rating (0 to 100 scale) ([7]; Postemergence, 31 g ai/ha): 0
- Ryegrass, Italian plant response rating (0 to 100 scale) [7, 21]: 30
- Barnyardgrass plant response rating (0 to 100 scale) ([8]; Postemergence, 31 g ai/ha): 40
- Barnyardgrass plant response rating (0 to 100 scale) [8, 21]: 70
- Blackgrass plant response rating (0 to 100 scale) ([9]; Postemergence, 31 g ai/ha): 50
- Blackgrass plant response rating (0 to 100 scale) [9, 21]: 70
- Corn plant response rating (0 to 100 scale) ([10]; Postemergence, 31 g ai/ha): 20
- Corn plant response rating (0 to 100 scale) [10, 21]: 10
- Foxtail, Giant plant response rating (0 to 100 scale) ([11]; Postemergence, 31 g ai/ha): 70
- Foxtail, Giant plant response rating (0 to 100 scale) [11, 21]: 70
- Galium plant response rating (0 to 100 scale) ([12]; Postemergence, 31 g ai/ha): 80
- Galium plant response rating (0 to 100 scale) [12, 21]: 90
- Kochia plant response rating (0 to 100 scale) ([13]; Postemergence, 31 g ai/ha): 0
- Kochia plant response rating (0 to 100 scale) [13, 21]: 20
- Pigweed plant response rating (0 to 100 scale) ([14]; Postemergence, 31 g ai/ha): 70
- Pigweed plant response rating (0 to 100 scale) [14, 21]: 80
- Ragweed plant response rating (0 to 100 scale) ([15]; Postemergence, 31 g ai/ha): 80
- Ragweed plant response rating (0 to 100 scale) [15, 21]: 100
- Wheat plant response rating (0 to 100 scale) ([16]; Postemergence, 31 g ai/ha): 0
- Wheat plant response rating (0 to 100 scale) [16, 21]: 0
- Plant response rating, Barnyardgrass (Flood) [17]: 90
- Plant response rating, Ducksalad (Flood) [18]: 95
- Plant response rating, Rice (Flood) [19]: 90
- Plant response rating, Sedge, Umbrella (Flood) [20]: 100
